Measurements: US20030008309A1, “Microarrays and methods for evaluating activity of compounds having estrogen-like activity” (National Institute of Advanced Industrial Science and …, priority 2000, published 2003)

Tested on: MCF-7 cells
Test: Microarray evaluation of estrogen-like activity (expression levels of estrogen-responsive genes/ESTs, Cy3/Cy5) in MCF-7 cells

Q: Which results are given for Clc1cc2c(cc1Cl)Oc1cc(Cl)c(Cl)cc1O2 [dioxin, 2,3,7,8-tetrachlorodibenzo-p-dioxin]?
A: evaluation value considering weighting factor (K): 32.90; Σ(E(example)n), summation value of expression levels (10 nM treatment, n=1 to 203, independently determined): 207.49; evaluation value = Σ[|log{BDE(A)n/BDE(Estrogen)n}|], n=1 to 203 (listed as example 2): 46.19
